Target: T1, glycolate oxidase (GO) (Homo sapiens, UniProt Q9UJM8)
T1 construct: healthy adult volunteers received single doses of Compound 1a; from tissue; host or cells: liver of healthy adult human volunteers (in vivo, Phase 1 study)
T1 sequence (Q9UJM8 1-370): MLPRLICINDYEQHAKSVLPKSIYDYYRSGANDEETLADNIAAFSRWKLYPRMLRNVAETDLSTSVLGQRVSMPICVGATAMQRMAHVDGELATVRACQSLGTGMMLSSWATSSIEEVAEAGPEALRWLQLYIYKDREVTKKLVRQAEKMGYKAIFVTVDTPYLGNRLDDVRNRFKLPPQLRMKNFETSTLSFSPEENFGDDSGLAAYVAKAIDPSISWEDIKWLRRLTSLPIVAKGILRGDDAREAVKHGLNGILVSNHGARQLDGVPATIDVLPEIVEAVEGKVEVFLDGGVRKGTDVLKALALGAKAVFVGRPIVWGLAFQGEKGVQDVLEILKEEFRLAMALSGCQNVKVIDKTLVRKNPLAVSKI
Experiment: Phase 1 SAD/MAD study: plasma glycolate as measure of target engagement
Assay type: in vivo
Experimental: Pharmacodynamics: Acidified human K2-EDTA plasma samples were analyzed for oxalic acid and glycolic acid by a validated method over a range of 8.00 to 120 μM for oxalic acid and 5.00 to 625 μM for glycolic acid based on the analysis of 50 μL of sample. Human plasma containing oxalic acid, glycolic acid and internal standards, ^13C2-oxalic acid and D2-glycolic acid, was derivatized after protein precipitation then extracted using liquid-liquid extraction and analyzed by a Sciex API 4000 LC-MS-MS equipped with an HPLC column. The peak area of the m/z 224.1→152.1 oxalic acid product ion was measured against the peak area of the m/z 226.1→152.1 13C2-oxalic acid internal standard product ion. The peak area of the m/z 210.1→107.0 glycolic acid product ion was measured against the peak area of the m/z 212.1→107.0 D2-glycolic acid internal standard product ion. Quantitation was performed using a weighted 1/x2 linear least squares regression analysis generated from calibration standards prepared on the day of extraction.
Pharmacodynamics of Compound 1a: As a measure of target engagement, plasma glycolate levels were assessed in Part A and Part B. In Part A, healthy adult volunteers received single doses of Compound 1a at 40, 120, 360, 1,000, 2,000, and 3,000 mg with increases in plasma glycolate observed (FIG. 3A). At all doses, mean maximal plasma glycolate concentrations exceeded the upper limit of normal (ULN) of 14 μM, reaching a mean maximum concentration of >90 μM at doses above 1,000 mg, which was sustained for 24 hours. Median time to recovery (plasma glycolate less than or equal to ULN) after a single dose was less than 72 hours.
In Part B, healthy adult volunteers received multiple doses of Compound 1a at 75 mg qd, 125 mg q12 h, 500 mg q12 h, 500 mg qd, 750 mg qd, and 1000 mg qd. As with Part A, mean maximal plasma glycolate concentrations exceeded the ULN at all doses on day 1 to a range of 50 to 100 μM and further increased on day 7 to a range of 100 to 200 μM.

[1] = Part A, single doses above 1,000 mg

Compound: O.O=C([O-])c1nn[nH]c1Oc1ccc(-c2ccc(C3CC(F)(F)C3)cc2)cc1.[Na+] [Compound 1a, sodium 5-((4′-(3,3-difluorocyclobutyl)-[1,1′-biphenyl]-4-yl)oxy)-1H-1,2,3-triazole-4-carboxylate monohydrate]
- time to inhibition of glycolate oxidase (GO) with increased plasma glycolate concentrations (FIG. 3 legend): ≤ 2 h
- mean maximal plasma glycolate concentrations (exceeded ULN) (Part A, all single doses 40 to 3,000 mg): > 14 µM
- duration for which mean maximum plasma glycolate concentration was sustained [1]: 24 h
- mean maximum plasma glycolate concentration [1]: > 90 µM
- levels of plasma glycolate compared with lumasiran (Part B, all doses): significantly higher than those observed with lumasiran at 3 mg/kg or 6 mg/kg
- Median time to recovery (plasma glycolate less than or equal to ULN) (after a single dose): less than 72 hours
- plasma glycolate concentrations at steady state (steady state, multiple doses): comparable to those measured in case reports of individuals with germline HAO1 knockout

— US20240423961A1, “1H-1,2,3-TRIAZOLE-4-CARBOXYLIC ACIDS FOR TREATMENT OF HYPEROXALURIA AND KIDNEY STONES” (CANTERO THERAPEUTICS, INC., priority 2021, published 2024)
